Laboratory results as given in patent US10576082B2, “ErbB2 regulates autophagic flux to modulate the proteostasis of APP-CTFs in alzheimer's disease” (Academia Sinica, priority 2016, dated 2020).

Test system: HEK293 cells overexpressing C99-YFP
Assay: Western blotting of HEK293 cells overexpressing C99-YFP
Assay type: cell-based
Conditions: 1 μM, 37° C., 24 h
Description: (A) Adherent CG and NG cells (20,000 cells/well) were treated with 1 μM of the indicated ErbB1/2-selective tyrosine kinase inhibitors in the presence of 1 μg/ml tetracycline at 37° C. for 24 h. The luminescence signals emitted by cells treated with vehicle alone (Ctrl, 0.1% DMSO) were referred to as 100% relative luminescence signals. The luminescence signals generated by γ-secretase-mediated proteolysis of C99 (CG) or NΔE (NG) were determined using the Steady-Glo luciferase assay reagent. (B) HEK293 overexpressing C99-YFP cells were treated with 1 μM of the indicated ErbB1/2 tyrosine kinase inhibitors at 37° C. for 24 h. Clarified lysates were analyzed by Western blotting and quantified by Image J. (C) HEK293 overexpressing ErbB1 ErbB2, CFP-tagged C99, and YFP-tagged NΔE cells were infected with gene-targeting shRNA-encoding lentivirus (shErbB1 or shErbB2) at 37° C. for 48 h. Clarified lysates containing equivalent amounts of proteins were examined by Western blotting and quantified by Image J. (D) CG and NG cells were infected with gene-targeting shRNA-encoding lentivirus at 37° C. for 48 h. Following induction with 1 μg/ml tetracycline for 24 h. Cells infected with empty lentivirus (w/o) or LacZ-targeting shRNA lentivirus (shCtrl_a and shCtrl_b) were included as controls. Data are shown as the mean±SD from three independent experiments, and were analyzed by Student's t-tests. * p<0.05.
Clarified lysates containing equivalent amounts of proteins were analyzed by Western blotting. (B, C) HEK293 overexpressing CFP-LC3 cells were infected with lentivirus encoding shRNA targeting LacZ ErbB2, or ErbB2 plus ATG5 for 48 h. The autophagy induction was analyzed by fluorescence confocal microscopy. The number of CFP-LC3 puncta per cell was quantified. The levels of LC3-I, LC3-II, and GAPDH were analyzed by Western blotting. (D, E) HEK293 cells overexpressing ErbB1, ErbB2, CFP-tagged C99, and YFP-tagged NΔE were infected with lentivirus encoding shRNA targeting LacZ (Ctrl), ErbB1, or ErbB2 for 48 h. Infection mixtures were replaced with 2 ml of fresh culture medium, and infected cells were then incubated at 37° C. for an additional 24 h. The levels of LC3-1, LC3-II, and p62 were analyzed by Western blotting and quantified by NIH Image J. Conditional media were harvested and processed for determination of secreted Aβ40 using a colourimetric Aβ40-specific ELISA kit. (F, G) HEK293 cells overexpressing C99-YFP were treated with vehicle (DMSO) or 1 μM CL-387,785 at 37° C. for 24 h and analyzed by Western blotting. Conditional media were harvested for determination of secreted Aβ40. The quantitative data are shown as mean±SD from three independent experiments, and were analyzed by Student's t-tests. * p<0.05.
Preparation of cell extracts. To prepare total cell-free extracts, we harvested cells in 6-well microplates with ice-cold PBS containing 20 mM EDTA, and then pelleted the cells by centrifugation. PBS-washed cells were resuspended in a lysis buffer containing 1% Triton X-100, 50 mM Tris-HCl pH 7.5, 150 mM NaCl, 25 mM β-glycerophosphate, 1 mM Na3VO4, and protease inhibitor cocktail set V (Merck). Following the removal of cell debris by centrifugation, clarified lysates were processed for immunoprecipitation, Western blotting, or quantification of BCA protein content.
Western blotting analysis. Protein concentration was measured with the BCA Protein Assay Kit (Pierce). […]

Q: How did the LC3-II/LC3-I ratio turn out when `CC#CC(=O)Nc1ccc2ncnc(Nc3cccc(Br)c3)c2c1` [CL-387,785, N-[4-[(3-bromophenyl)amino]-6-quinazolinyl]-2-butynamide] was run?
A: Its LC3-II/LC3-I ratio is “concurrent increase”.

Q: And the “level of AICD” value?
A: The value was “concomitantly decreased”.

Q: What about the “level of C99” value of the same compound?
A: The value was “concomitantly decreased”.

Q: What about the “level of ErbB2” value of the same compound?
A: Its value is “concomitantly decreased”.

Q: And the “level of p62” value?
A: Its value is “significant reduction”.
